The test system of one assay is poly rA (RNA, polymer) A. The experiment in a line: competition dialysis. The note with it: Na-cacodylate, I = 0.05 M; pH 7, 1 mM EDTA, 25 °C, 24 h; 5 μM compound; bound amount only in figure.
The subject of assay [1] is poly dA-poly dT (DNA, polymer) A/T. As to the kind of experiment: UV melting of four-polynucleotide mixture, 260 nm. To be noted: Na-cacodylate with NaCl, I = 0.1 M; pH 7.0, 1 mM EDTA; 2 μM compound, 20 μM (bp) each polynucleotide, r = 0.025; error ±0.5; per base.
Assay [2] shares this test system. The experiment in a line: CD titration. The note with it: Na-cacodylate, I = 0.05 M; pH 7.0, 1 mM EDTA; 30 μM polynucleotide, r = 0.3; bisignate ICD, minor-groove dimers.
Assay [3] has as its system poly dA-poly rU (DNA:RNA, polymer) A/U. As to the kind of experiment: fluorescence titration, Scatchard. The note with it: Na-cacodylate; pH 7.0, 1 mM EDTA, 25 °C; per phosphate; table footnote says I = 0.05 M; per base.
For assay [4] the test system is unchanged. As to the kind of experiment: UV melting of four-polynucleotide mixture, 260 nm. To be noted: Na-cacodylate with NaCl, I = 0.1 M; pH 7.0, 1 mM EDTA; 2 μM compound, 20 μM (bp) each polynucleotide, r = 0.025; error ±0.5; per base.
For assay [5], the system named is ATT triplex (poly dA-2poly dT) (DNA, polymer) A/T/T. As to the kind of experiment: UV melting, 260 nm. To be noted: Na-cacodylate with NaCl, I = 0.1 M, pH 7.0, 1 mM EDTA, r = 0.1, error ±0.5, per base.
Assay [6] has as its system poly rA-poly rU (RNA, polymer) A/U. The experiment in a line: UV melting of four-polynucleotide mixture, 260 nm. To be noted: Na-cacodylate with NaCl, I = 0.1 M; pH 7.0, 1 mM EDTA; 2 μM compound, 20 μM (bp) each polynucleotide, r = 0.025; error ±0.5; per base.
The test system of assay [7] is ATT 26mer triplex (DNA, triplex) AAAAAAAAAAAAAAAAAAAAAAAAAA/TTTTTTTTTTTTTTTTTTTTTTTTTT/TTTTTTTTTTTTTTTTTTTTTTTTTT
As to the kind of experiment: fluorescence titration, Scatchard. To be noted: Na-cacodylate, I = 0.05 M; pH 7.0, 1 mM EDTA, 25 °C; per phosphate; per base.

In assay [8] the test system is ATT triplex (poly dA-2poly dT) (DNA, polymer) A/T/T. As to the kind of experiment: fluorescence titration, Scatchard. To be noted: Na-cacodylate, I = 0.05 M; pH 7.0, 1 mM EDTA, 25 °C; per phosphate; per base.
Assay [9] concerns poly rA-poly rU (RNA, polymer) A/U. The experiment in a line: CD titration. To be noted: Na-cacodylate, I = 0.05 M, 30 μM polynucleotide.
The test system of another assay is poly dT (DNA, polymer) T. As to the kind of experiment: competition dialysis. To be noted: Na-cacodylate, I = 0.05 M; pH 7, 1 mM EDTA, 25 °C, 24 h; 5 μM compound; bound amount only in figure.
The test system of assay [10] is poly rA-poly dT (DNA:RNA, polymer) A/T. The experiment in a line: UV melting of four-polynucleotide mixture, 260 nm. To be noted: Na-cacodylate with NaCl, I = 0.1 M; pH 7.0, 1 mM EDTA; 2 μM compound, 20 μM (bp) each polynucleotide, r = 0.025; error ±0.5; per base.
The test system is the same in assay [11]. As to the kind of experiment: ITC. The note with it: Na-cacodylate, I = 0.05 M; pH 7.0, 1 mM EDTA, 25 °C; one-site fit; per base.
Assay [12] concerns ATT triplex (poly dA-2poly dT) (DNA, polymer) A/T/T. The experiment in a line: ITC. The note with it: Na-cacodylate, I = 0.05 M; pH 7.0, 1 mM EDTA, 25 °C; site with n 0.1 of two-site fit (other site 6.5, n 0.7); per base.
Where [13] appears, read: third-strand transition (duplex transition 0).

SMILES strings stand for the structures.

The results in this text go back to paper PMC8945811 (2022).

Turning to `Clc1c(-c2nc3ccc(C4=NCCN4)cc3s2)sc2ccccc12`, the binding result in the assay with poly rA (RNA, polymer) A is recorded as “yes”; in [2], “yes”; in assay [9] (pH 7.0, 1 mM EDTA, r = 0.3, negative ICD, intercalation), “yes”. For the same compound, the ΔTm (as a rule, the shift of the melting midpoint relative to a reference) in assay [1] stood at 0 °C; in assay [4] it was 5.5 °C; in assay [5] (setting [13]), 43.7 °C; in assay [6], 0 °C. Further, the “log Ks” value in assay [3] was 8.0; in assay [7], 7.4; in [8], 7.6.
On to `c1cc2nc(-c3cncc(-c4nc5ccc(C6=NCCN6)cc5s4)c3)sc2cc1C1=NCCN1`, for which the binding result was “yes” with poly dT (DNA, polymer) T and “yes” in the assay with poly rA (RNA, polymer) A. Also, the ΔTm in assay [1] came out at 19.1 °C; in assay [10], 1.7 °C; in [4], 5.6 °C; in [5] (third-strand transition (duplex transition 21.9)), 31.7 °C; in [6], 2.2 °C. Besides, the “log Ks” value is 7.8 in assay [11] and 8.7 in assay [12].
As to `c1csc(-c2ccc(-c3nc4ccc(C5=NCCN5)cc4s3)s2)c1`, the ΔTm in [1] is 2.1 °C; in assay [10], 1.7 °C; in assay [5] (setting [13]), 27.3 °C. Moreover, the binding result in assay [9] (pH 7.0, bisignate ICD, major-groove dimers) is reported as “yes”.
